Read-outs that look alike come from different tables or passages of the source.
Assay: Solubility of compound 1 in the solvent under evaluation at 22° C. and 65° C. (crystallization study)
Assay type: physicochemical
Method: Crystalline compound 1 was evaluated. Crystallization study procedures were done based on the solubility of compound 1 in the solvent under evaluation as follows.
The results are presented below in Table 10 where: * refers to compound 1 prepared as described above; and ** refers to compound 1 prepared as described above and further incubated at 100% relative humidity at 22° C. for 17 days.

Nc1ncc(-c2cc(N3C[C@@H]4C[C@H]3CO4)nc(N3CCC(F)(F)C3)n2)cc1OC(F)F [Compound 1, 5-(6-((1S,4S)-2-oxa-5-azabicyclo[2.2.1]heptan-5-yl)-2-(3,3-difluoropyrrolidin-1-yl)pyrimidin-4-yl)-3-(difluoromethoxy)pyridin-2-amine]
solubility (2-methyl THF, 22 °C, organic solvent or mixture, thermodynamic from solid, solvent: 2-methyl THF, read-out: Solubility at 22° C.): < 50 mg/mL
solubility (2-methyl THF, 65 °C, organic solvent or mixture, solvent: 2-methyl THF, read-out: Solubility at 65° C.): > 50 mg/mL
solubility (5% water in ethanol, 22 °C, organic solvent or mixture, thermodynamic from solid, solvent: 5% water in ethanol, read-out: Solubility at 22° C.): < 50 mg/mL
solubility (5% water in ethanol, 65 °C, organic solvent or mixture, solvent: 5% water in ethanol, read-out: Solubility at 65° C.): < 50 mg/mL
solubility (5% water in isopropanol, 22 °C, organic solvent or mixture, thermodynamic from solid, solvent: 5% water in isopropanol, read-out: Solubility at 22° C.): < 50 mg/mL
solubility (5% water in isopropanol, 65 °C, organic solvent or mixture, solvent: 5% water in isopropanol, read-out: Solubility at 65° C.): < 50 mg/mL
solubility (5% water in methanol, 22 °C, organic solvent or mixture, thermodynamic from solid, solvent: 5% water in methanol, read-out: Solubility at 22° C.): < 50 mg/mL
solubility (5% water in methanol, 65 °C, organic solvent or mixture, solvent: 5% water in methanol, read-out: Solubility at 65° C.): < 50 mg/mL
solubility (5% water in propanol, 22 °C, organic solvent or mixture, thermodynamic from solid, solvent: 5% water in propanol, read-out: Solubility at 22° C.): < 50 mg/mL
solubility (5% water in propanol, 65 °C, organic solvent or mixture, solvent: 5% water in propanol, read-out: Solubility at 65° C.): < 50 mg/mL
solubility (15% water in THF, 22 °C, organic solvent or mixture, thermodynamic from solid, solvent: 15% water in THF, read-out: Solubility at 22° C.): > 50 mg/mL
solubility (15% water in acetone, 22 °C, organic solvent or mixture, thermodynamic from solid, solvent: 15% water in acetone, read-out: Solubility at 22° C.): < 50 mg/mL
solubility (15% water in acetone, 65 °C, organic solvent or mixture, thermodynamic from solid, solvent: 15% water in acetone, read-out: Solubility at 65° C.): > 50 mg/mL
solubility (15% water in ethanol, 22 °C, organic solvent or mixture, thermodynamic from solid, solvent: 15% water in ethanol, read-out: Solubility at 22° C.): < 50 mg/mL
solubility (15% water in ethanol, 65 °C, organic solvent or mixture, thermodynamic from solid, solvent: 15% water in ethanol, read-out: Solubility at 65° C.): < 50 mg/mL
solubility (15% water in isopropanol, 22 °C, organic solvent or mixture, thermodynamic from solid, solvent: 15% water in isopropanol, read-out: Solubility at 22° C.): < 50 mg/mL
solubility (15% water in isopropanol, 65 °C, organic solvent or mixture, thermodynamic from solid, solvent: 15% water in isopropanol, read-out: Solubility at 65° C.): < 50 mg/mL
solubility (15% water in methanol, 22 °C, organic solvent or mixture, thermodynamic from solid, solvent: 15% water in methanol, read-out: Solubility at 22° C.): < 50 mg/mL
solubility (15% water in methanol, 65 °C, organic solvent or mixture, solvent: 15% water in methanol, read-out: Solubility at 65° C.): < 50 mg/mL
solubility (15% water in propanol, 22 °C, organic solvent or mixture, thermodynamic from solid, solvent: 15% water in propanol, read-out: Solubility at 22° C.): < 50 mg/mL
solubility (15% water in propanol, 65 °C, organic solvent or mixture, solvent: 15% water in propanol, read-out: Solubility at 65° C.): < 50 mg/mL
solubility (20% water in acetonitrile, 22 °C, organic solvent or mixture, thermodynamic from solid, solvent: 20% water in acetonitrile, read-out: Solubility at 22° C.): < 50 mg/mL
solubility (20% water in acetonitrile, 65 °C, organic solvent or mixture, solvent: 20% water in acetonitrile, read-out: Solubility at 65° C.): > 50 mg/mL
solubility (50% water in acetonitrile, 22 °C, aqueous with cosolvent or surfactant or cyclodextrin, thermodynamic from solid, solvent: 50% water in acetonitrile, read-out: Solubility at 22° C.): < 50 mg/mL
solubility (50% water in acetonitrile, 65 °C, aqueous with cosolvent or surfactant or cyclodextrin, solvent: 50% water in acetonitrile, read-out: Solubility at 65° C.): < 50 mg/mL
solubility (50% water in ethanol, 22 °C, aqueous with cosolvent or surfactant or cyclodextrin, thermodynamic from solid, solvent: 50% water in ethanol, read-out: Solubility at 22° C.): < 50 mg/mL
solubility (50% water in ethanol, 65 °C, aqueous with cosolvent or surfactant or cyclodextrin, solvent: 50% water in ethanol, read-out: Solubility at 65° C.): < 50 mg/mL
solubility (50% water in isopropanol, 22 °C, aqueous with cosolvent or surfactant or cyclodextrin, thermodynamic from solid, solvent: 50% water in isopropanol, read-out: Solubility at 22° C.): < 50 mg/mL
solubility (50% water in isopropanol, 65 °C, aqueous with cosolvent or surfactant or cyclodextrin, solvent: 50% water in isopropanol, read-out: Solubility at 65° C.): < 50 mg/mL
solubility (50% water in methanol, 22 °C, aqueous with cosolvent or surfactant or cyclodextrin, thermodynamic from solid, solvent: 50% water in methanol, read-out: Solubility at 22° C.): < 50 mg/mL
solubility (50% water in methanol, 65 °C, aqueous with cosolvent or surfactant or cyclodextrin, solvent: 50% water in methanol, read-out: Solubility at 65° C.): < 50 mg/mL
solubility (50% water in propanol, 22 °C, aqueous with cosolvent or surfactant or cyclodextrin, thermodynamic from solid, solvent: 50% water in propanol, read-out: Solubility at 22° C.): < 50 mg/mL
solubility (50% water in propanol, 65 °C, aqueous with cosolvent or surfactant or cyclodextrin, solvent: 50% water in propanol, read-out: Solubility at 65° C.): < 50 mg/mL
solubility (80% water in acetonitrile, 22 °C, aqueous with cosolvent or surfactant or cyclodextrin, thermodynamic from solid, solvent: 80% water in acetonitrile, read-out: Solubility at 22° C.): < 50 mg/mL
solubility (80% water in acetonitrile, 65 °C, aqueous with cosolvent or surfactant or cyclodextrin, solvent: 80% water in acetonitrile, read-out: Solubility at 65° C.): < 50 mg/mL
solubility (Acetic acid, 22 °C, organic solvent or mixture, thermodynamic from solid, solvent: Acetic acid, read-out: Solubility at 22° C.): > 100 mg/mL
solubility (Acetonitrile, 22 °C, organic solvent or mixture, thermodynamic from solid, solvent: Acetonitrile, read-out: Solubility at 22° C.): < 50 mg/mL
solubility (Acetonitrile, 65 °C, organic solvent or mixture, solvent: Acetonitrile, read-out: Solubility at 65° C.): > 50 mg/mL
solubility (Chloroform, 22 °C, organic solvent or mixture, thermodynamic from solid, solvent: Chloroform, read-out: Solubility at 22° C.): < 50 mg/mL
solubility (Chloroform, 65 °C, organic solvent or mixture, solvent: Chloroform, read-out: Solubility at 65° C.): > 50 mg/mL
solubility (DMA, 22 °C, organic solvent or mixture, thermodynamic from solid, solvent: DMA, read-out: Solubility at 22° C.): > 200 mg/mL
solubility (DMF, 22 °C, organic solvent or mixture, thermodynamic from solid, solvent: DMF, read-out: Solubility at 22° C.): > 100 mg/mL
solubility (DMSO, 22 °C, organic solvent or mixture, thermodynamic from solid, solvent: DMSO, read-out: Solubility at 22° C.): > 100 mg/mL
solubility (Dichloromethane, 22 °C, organic solvent or mixture, thermodynamic from solid, solvent: Dichloromethane, read-out: Solubility at 22° C.): < 50 mg/mL
solubility (Dichloromethane, 65 °C, organic solvent or mixture, solvent: Dichloromethane, read-out: Solubility at 65° C.): > 50 mg/mL
solubility (Diisopropylamine, 22 °C, organic solvent or mixture, thermodynamic from solid, solvent: Diisopropylamine, read-out: Solubility at 22° C.): < 50 mg/mL
solubility (Diisopropylamine, 65 °C, organic solvent or mixture, solvent: Diisopropylamine, read-out: Solubility at 65° C.): < 50 mg/mL
solubility (Dimethyl carbonate, 22 °C, organic solvent or mixture, thermodynamic from solid, solvent: Dimethyl carbonate, read-out: Solubility at 22° C.): < 50 mg/mL
solubility (Dimethyl carbonate, 65 °C, organic solvent or mixture, solvent: Dimethyl carbonate, read-out: Solubility at 65° C.): > 50 mg/mL
solubility (Dioxane, 22 °C, organic solvent or mixture, thermodynamic from solid, solvent: Dioxane, read-out: Solubility at 22° C.): > 50 mg/mL
solubility (Ethyl acetate, 22 °C, organic solvent or mixture, thermodynamic from solid, solvent: Ethyl acetate, read-out: Solubility at 22° C.): < 50 mg/mL
solubility (Ethyl acetate, 65 °C, organic solvent or mixture, solvent: Ethyl acetate, read-out: Solubility at 65° C.): > 50 mg/mL
solubility (Isopropyl acetate, 22 °C, organic solvent or mixture, thermodynamic from solid, solvent: Isopropyl acetate, read-out: Solubility at 22° C.): < 50 mg/mL
solubility (Isopropyl acetate, 65 °C, organic solvent or mixture, solvent: Isopropyl acetate, read-out: Solubility at 65° C.): < 50 mg/mL
solubility (MEK, 22 °C, organic solvent or mixture, thermodynamic from solid, solvent: MEK, read-out: Solubility at 22° C.): < 50 mg/mL
solubility (MEK, 65 °C, organic solvent or mixture, thermodynamic from solid, solvent: MEK, read-out: Solubility at 65° C.): < 50 mg/mL
solubility (MIBK, 22 °C, organic solvent or mixture, thermodynamic from solid, solvent: MIBK, read-out: Solubility at 22° C.): < 50 mg/mL
solubility (MIBK, 65 °C, organic solvent or mixture, thermodynamic from solid, solvent: MIBK, read-out: Solubility at 65° C.): < 50 mg/mL
solubility (MTBE, 22 °C, organic solvent or mixture, thermodynamic from solid, solvent: MTBE, read-out: Solubility at 22° C.): < 50 mg/mL
solubility (MTBE, 65 °C, organic solvent or mixture, thermodynamic from solid, solvent: MTBE, read-out: Solubility at 65° C.): < 50 mg/mL
solubility (Methanol, 22 °C, organic solvent or mixture, thermodynamic from solid, solvent: Methanol, read-out: Solubility at 22° C.): < 50 mg/mL
solubility (Methanol, 65 °C, organic solvent or mixture, thermodynamic from solid, solvent: Methanol, read-out: Solubility at 65° C.): < 50 mg/mL
solubility (NMP, 22 °C, organic solvent or mixture, thermodynamic from solid, solvent: NMP, read-out: Solubility at 22° C.): > 200 mg/mL
solubility (THF, 22 °C, organic solvent or mixture, thermodynamic from solid, solvent: THF, read-out: Solubility at 22° C.): > 50 mg/mL
solubility (Toluene, 22 °C, organic solvent or mixture, thermodynamic from solid, solvent: Toluene, read-out: Solubility at 22° C.): < 50 mg/mL
solubility (Toluene, 65 °C, organic solvent or mixture, thermodynamic from solid, solvent: Toluene, read-out: Solubility at 65° C.): < 50 mg/mL
solubility (acetone, 22 °C, organic solvent or mixture, thermodynamic from solid, solvent: Acetone, read-out: Solubility at 22° C.): < 50 mg/mL
solubility (acetone, 65 °C, organic solvent or mixture, solvent: Acetone, read-out: Solubility at 65° C.): > 50 mg/mL
solubility (butanol, 22 °C, organic solvent or mixture, thermodynamic from solid, solvent: Butanol, read-out: Solubility at 22° C.): < 50 mg/mL
solubility (butanol, 65 °C, organic solvent or mixture, solvent: Butanol, read-out: Solubility at 65° C.): < 50 mg/mL
solubility (ethanol, 22 °C, organic solvent or mixture, thermodynamic from solid, solvent: Ethanol, read-out: Solubility at 22° C.): < 50 mg/mL
solubility (ethanol, 65 °C, organic solvent or mixture, solvent: Ethanol, read-out: Solubility at 65° C.): < 50 mg/mL
solubility (i-butanol, 22 °C, organic solvent or mixture, thermodynamic from solid, solvent: i-Butanol, read-out: Solubility at 22° C.): < 50 mg/mL
solubility (i-butanol, 65 °C, organic solvent or mixture, thermodynamic from solid, solvent: i-Butanol, read-out: Solubility at 65° C.): < 50 mg/mL
solubility (isopropanol, 22 °C, organic solvent or mixture, thermodynamic from solid, solvent: Isopropanol, read-out: Solubility at 22° C.): < 50 mg/mL
solubility (isopropanol, 65 °C, organic solvent or mixture, solvent: Isopropanol, read-out: Solubility at 65° C.): < 50 mg/mL
solubility (n-Heptane, 22 °C, organic solvent or mixture, thermodynamic from solid, solvent: n-Heptane, read-out: Solubility at 22° C.): < 50 mg/mL
solubility (n-Heptane, 65 °C, organic solvent or mixture, thermodynamic from solid, solvent: n-Heptane, read-out: Solubility at 65° C.): < 50 mg/mL
solubility (nitromethane, 22 °C, organic solvent or mixture, thermodynamic from solid, solvent: Nitromethane, read-out: Solubility at 22° C.): < 50 mg/mL
solubility (nitromethane, 65 °C, organic solvent or mixture, thermodynamic from solid, solvent: Nitromethane, read-out: Solubility at 65° C.): > 50 mg/mL
solubility (propanol, 22 °C, organic solvent or mixture, thermodynamic from solid, solvent: Propanol, read-out: Solubility at 22° C.): < 50 mg/mL
solubility (propanol, 65 °C, organic solvent or mixture, thermodynamic from solid, solvent: Propanol, read-out: Solubility at 65° C.): < 50 mg/mL
solubility (s-butanol, 22 °C, organic solvent or mixture, thermodynamic from solid, solvent: s-butanol, read-out: Solubility at 22° C.): < 50 mg/mL
solubility (s-butanol, 65 °C, organic solvent or mixture, thermodynamic from solid, solvent: s-butanol, read-out: Solubility at 65° C.): < 50 mg/mL
solubility (water, 22 °C, water, thermodynamic from solid, solvent: Water, read-out: Solubility at 22° C.): < 50 mg/mL
solubility (water, 65 °C, water, thermodynamic from solid, solvent: Water, read-out: Solubility at 65° C.): < 50 mg/mL

Source: patent US20230312473A1, “PROCESS FOR THE PREPARATION OF BIHETEROARYL COMPOUNDS AND CRYSTAL FORMS THEREOF” (Genentech, Inc., priority 2020, published 2023)
